Experimental data reported in patent US6368788B1 (priority 1987, dated 2002).
Marks after values point to notes of the source that are not given here.

Experiments:
[1] = test system: human peripheral blood T-lymphocytes; assay: OKT4+ and OKT8+ lymphocytes from patients with secondary immunodeficiency after in vitro incubation; type: cell-based; details: for OKT4^+/OKT8^+ ratio / mean percentage of T-helper (OKT4^+) lymphocytes / mean percentage of T-suppressor (OKT8^+) lymphocytes: 45 minutes at 37° C.
Excerpt: The effects of L-Glu-L-Trp on human peripheral blood T-lymphocytes was investigated using indirect immunofluorescence microscopy and OKT4 and OKT8 monoclonal antibodies (Ortho, USA) directed to lymphocyte cell surface differentiation antigens. For these studies lymphocytes were isolated from heparinized peripheral blood (25 units heparin/mL) isolated from 18 different donors with inflammatory lung diseases and chronic purulent bronchitis accompanied by a secondary immunodeficiency state. Lymphocytes were prepared by centrifugation on Ficoll-Hypaque, washed, and then incubated in vitro for 45 minutes at 37° C. in the presence (or absence) of L-Glu-L-Trp at concentrations of 1 mg/mL, 0.01 mg/mL, 0.0001 mg/mL. Following incubation the cells were washed with Medium 199 and the percentage of OKT4^+ (T-helper) and OKT8^+ (T-suppressor) lymphocytes determined by indirect immunofluorescent microscopy. The results presented in TABLE 51 show the mean percentages of OKT4^+ and OKT8^+ cells in this group of patients after incubation with Medium 199 (Control), or with L-Glu-L-Trp.

[2] = Bronchial asthma (Protocol A); type: in vivo, human
Procedure: Sixty five patients (65) with bronchial asthma, including both adults and children, were entered into the trial: 37 patients were treated with L-Glu-L-Trp and 28 (controls) received conventional therapy alone. L-Glu-L-Trp was administered im in a single daily dose of 1 μg/kg on each of 5-10 consecutive days. […] In certain patients it was possible to eliminate the use of prescribed steroids.

[3] = test system: peripheral blood lymphocytes; assay: Protocol A3 Group 2: pyoderma in patients with SLE; type: in vivo, human
Excerpt: Group 2 constituted 22 patients with diagnosed forms of systemic lupus erythematosus (SLE): ie., 14 males and 8 females ranging in age from 21 to 62 years of age. The time since presentation with a diagnosis of SLE in this patient population ranged from several months to 18 years. All SLE patients in this trial had dermal manifestations of lupus erythematosus that included discoid disseminated forms of the disease. All patients had experienced chronic and recurrent episodes of pyoderma, and all had previously received conventional therapy, including use of antibiotics, delagil, and external corticosteroid ointments without effect. Patients in Group 2 were randomly divided into two treatment groups, the first consisting of 13 patients (9 men and 4 women) treated with L-Glu-L-Trp according to Therapy A, below, and the second consisting of 9 patients (5 men and 4 women) treated (as a control) according to Therapy B, ie., conventional therapeutic methods using anti-malarial preparations and vasoactive agents according to standard dosages and schedules.
In treatment Protocol A, all patients received L-Glu-L-Trp in combination with antibiotics. […]
Local antibiotics were administered as follows: Ampicillin (4), oxacillin (4), Levomycetin (1), tetracycline (9), Rondomycin (2), deoxycycline (8), cephalexin (2), and Rifampicin (1).

HIV = assay: HIV-infected individuals: comparative studies with TPI; design: species or system human; details: in vivo
Procedure: In separate studies, a total of 21 HIV-infected individuals were studied, including full-blown syndrome, prodromal, and pre-AIDS afflicted individuals who were treated with Thympentin. Thympentin and TPI are thymic gland peptide extracts previously disclosed in the scientific literature.

Staphylococci = assay: Chronic staphylococcal pyoderma, overview (Protocol A); design: species or system human; details: in vivo
Procedure: The total clinical trial population eventually under examination consisted of 159 patients with pyoderma, including furunculitis, cellulitis, and folliculitis. Trial Protocol A1, below, details some of the results obtained in this trial. Medications were administered either im or intranasally for 5 consecutive days. Peripheral blood immune indices were decreased prior to treatment and following treatment with L-Glu-L-Trp were restored to within the normal range. […] Clinical improvement was correlated with return of the immune parameters to within the normal range of values. In certain patients, L-Glu-L-Trp was also topically applied as a sterile saline solution of medication for a period of 5 to 10 days at a dosage of 1 μg/kg body weight.

[4] = Pleuritis / suppurative lung diseases, combined antibiotic therapy (Protocol K); type: in vivo, human
Procedure: Efficacy of L-Glu-L-Trp in combined antibiotic therapy was evaluated in twelve male patients (aged 18 to 45) with suppurative lung diseases that were poorly responsive to antibiotic therapy and accompanied by diffuse pleuritis, disseminated intravascular coagulation (DIC), pleural effusions, and fever. […] L-Glu-L-Trp was administered to these patients as a treatment of nearly last resort, and as part of the ongoing (unsuccessful) regimen of broad spectrum antibiotic therapy: i.e., 200 μg of L-Glu-L-Trp was administered im daily over a period of 5-7 days. […] In addition, T-cell counts in peripheral blood increased and IgG, IgM, and IgA increased (TABLE 17) and C-reactive protein levels fell (TABLE 16).

[5] = Group 2 pyoderma in SLE, after L-Glu-L-Trp Therapy (n = 13)

For L-Glu-L-Trp, the “Percentage of detectable OKT8+ T-suppressor cells” value [1] was “did not alter the percentage of detectable OKT 8^+ T-suppressor cells”, the “Percentage of detectable T-helpers (OKT4+)” value ([1]; 1 and 0.01 mg/mL) was “increased the percentage of detectable T-helpers” and the “OKT4^+/OKT8^+ ratio” value ([1]; Dose 0.0001 mg/ml) was 1.1. The “mean percentage of T-helper (OKT4^+) lymphocytes” value (shortened to “mean percentage of T-helper”) ([1]; Dose 0.0001 mg/ml) was 25.4 ± 2.3, the “mean percentage of T-suppressor (OKT8^+) lymphocytes” value (shortened to “mean percentage of T-suppressor”) ([1]; Dose 0.0001 mg/ml) was 23.1 ± 2.1 and the “OKT4^+/OKT8^+ ratio” value ([1]; Dose 0.01 mg/ml) was 1.8*. For the same substance, the “mean percentage of T-helper” value ([1]; Dose 0.01 mg/ml) was 39.8 ± 2.4, the “mean percentage of T-suppressor” value ([1]; Dose 0.01 mg/ml) was 22.7 ± 1.8 and the “OKT4^+/OKT8^+ ratio” value ([1]; Dose 1 mg/ml) was 1.9*. For the same substance, the “mean percentage of T-helper” value ([1]; Dose 1 mg/ml) was 39.7 ± 2.7, the “mean percentage of T-suppressor” value ([1]; Dose 1 mg/ml) was 21.4 ± 1.3 and the “Patients with disappearance of symptoms of food and drug allergies” value ([2]; in vivo) was “more than half”. The “Decrease in the incidence of bronchial asthmatic attacks” value ([2]; year long follow-up) was 4.2 fold, the B-Lymphocytes [3, 5] was 0.16 ± 0.01 ×10^9/L and the “B-Lymphocytes % Normal Value” [3, 5] was “(52%)”. For the same substance, the “B-Lymphocytes (%)” value [3, 5] was 6.8 ± 0.9%, the “Basophils (%)” value [3, 5] was 0.1 ± 0.1% and the “Blast Transformation, Con-A” value [3, 5] was 64.1 ± 6.5 % of PBL. The “Blast Transformation, PHA” value [3, 5] was 47.4 ± 3.5 % of PBL, the “Eosinophils (%)” value [3, 5] was 2.2 ± 0.1% and the Erythrocytes [3, 5] was 4.7 ± 0.1 10^12/L. For the same substance, the IgA [3, 5] was 2.85 ± 0.32 g/L, the “IgA % Normal Value” [3, 5] was “(150%)” and the IgG [3, 5] was 14.8 ± 1.27 g/L. The “IgG % Normal Value” [3, 5] was “(137%)”, the IgM [3, 5] was 0.92 ± 0.12 g/L and the “IgM % Normal Value” [3, 5] was “(58%)”. The Leukocytes [3, 5] was 5.74 ± 0.12 ×10^9/L, the “Leukocytes % Normal Value” [3, 5] was “(86%)” and the Lymphocytes [3, 5] was 2.17 ± 0.21 ×10^9/L. For the same substance, the “Lymphocytes % Normal Value” [3, 5] was “(78%)”, the Lymphocytes, % [3, 5] was 36.4 ± 2.3% and the “Monocytes, %” value [3, 5] was 8.0 ± 0.7%. For the same substance, the Neutrophils [3, 5] was 3.5 ± 0.7 ×10^9/L, the “Neutrophils, %” value [3, 5] was 55.3 ± 4.2% and the “Neutrophils, % Normal Value” [3, 5] was “(106%)”. The T-Lymphocytes [3, 5] was 1.13 ± 0.07 ×10^9/L, the “T-Lymphocytes % Normal Value” [3, 5] was “(66%)” and the “T-Lymphocytes (%)” value [3, 5] was 44.3 ± 2.7%. For the same substance, the T-helper [3, 5] was 0.87 ± 0.12 ×10^9/L, the “T-helper % Normal Value” [3, 5] was “(66%)” and the “T-helper (%)” value [3, 5] was 26.5 ± 2.7%. For the same substance, the T-suppressor [3, 5] was 0.53 ± 0.03 ×10^9/L, the “T-suppressor % Normal Value” [3, 5] was “(136%)” and the “T-suppressor (%)” value [3, 5] was 21.2 ± 3.7%. The Clinical outcome ([3]; human, in vivo) was “leads to a positive clinical effect and resolution of dermal rashes”, the Comparative effectiveness (HIV) was “more effective than TPI in restoring normal immunologic indices, T-cell functional activity, and T4/T8 ratios” and the Clinical outcome (Staphylococci) was “disappearance of skin manifestations and resolution of pyoderma”. The Clinical outcome ([4]; 200 μg im daily 5-7 days) was “A dramatic change in the clinical picture was observed in all 12 patients”, the ATIII ([4]; After L-Glu-L-Trp Therapy) was 98.3 ± 15.3 % of normal and the “Clotting time (citrated whole blood-recalcified)” value ([4]; After L-Glu-L-Trp Therapy) was 146.5 ± 28.2. For the same substance, the FDP ([4]; After L-Glu-L-Trp Therapy) was 21.7 ± 0.8 µg/mL, the “Fibrinogen Concentration” value ([4]; After L-Glu-L-Trp Therapy) was 4.7 ± 1.2 g/L and the “Fibrinolytic Activity” value ([4]; After L-Glu-L-Trp Therapy) was 181.2 ± 52.2 min. The Kaolin-Cephalin clotting time ([4]; After L-Glu-L-Trp Therapy) was 61.7 ± 6.1.
